{"source": "patent US11987588B2", "about": "“Modulators of the beta-3 adrenergic receptor useful for the treatment or prevention of heart failure and disorders related thereto” (Arena Pharmaceuticals, Inc., priority 2017, dated 2024)", "data": [{"target": "Beta-3 Adrenergic Receptor (Homo sapiens (Human), UniProt P13945)", "sequence (P13945 whole entry, species assumed)": "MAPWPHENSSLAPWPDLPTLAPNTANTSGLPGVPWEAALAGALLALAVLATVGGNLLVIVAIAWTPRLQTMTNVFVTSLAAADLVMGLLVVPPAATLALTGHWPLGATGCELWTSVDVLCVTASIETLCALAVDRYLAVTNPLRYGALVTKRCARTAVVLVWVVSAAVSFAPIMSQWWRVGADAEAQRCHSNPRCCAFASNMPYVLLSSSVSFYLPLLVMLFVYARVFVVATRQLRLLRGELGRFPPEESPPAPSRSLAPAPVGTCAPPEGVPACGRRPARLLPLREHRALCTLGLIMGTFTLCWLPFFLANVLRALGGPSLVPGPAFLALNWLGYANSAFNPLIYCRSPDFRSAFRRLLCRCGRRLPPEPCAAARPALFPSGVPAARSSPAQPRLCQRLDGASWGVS", "experiment": "Homogeneous Time-Resolved Fluorescence (HTRF) cAMP antagonist assay, IC50 determination", "type": "cell-based", "details": "CHO-K1 cells stably expressing recombinant receptor, isoproterenol at EC90", "method_in_brief": "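Antagonist mode: isoproterenol at its predetermined EC90 added after compound to recombinant CHO-K1 cells in IBMX-containing PBS, 1 h, room temperature. Compounds tested as 5-fold, 10-point dilutions, top final typically 10 or 100 μM. HTRF signal converted to cAMP via standard curve, giving IC50.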", "units": {"IC50": "nM"}, "values": [{"smiles": "CCOc1ccc(-c2ccc(CN)cc2)cc1S(=O)(=O)N1CCC2(CC1)CC(NC[C@H](O)COc1cccc(S(=O)(=O)NC)c1)CO2", "note": "(stereo partly drawn) [Compound 404, 3-((2S)-3-(8-(4′-(aminomethyl)-4-ethoxybiphenyl-3-ylsulfonyl)-1-oxa-8-azaspiro[4.5]decan-3-ylamino)-2-hydroxypropoxy)-N-methylbenzenesulfonamide]", "IC50": 13}, {"smiles": "CNS(=O)(=O)c1cccc(OC[C@@H](O)CN[C@H]2COC3(CCN(S(=O)(=O)c4ccc(-c5ccc(CN(C)C)cc5)cc4)CC3)C2)c1", "note": "[Compound 405, 3-((S)-3-((R)-8-(4′-((dimethylamino)methyl)biphenyl-4-ylsulfonyl)-1-oxa-8-azaspiro[4.5]decan-3-ylamino)-2-hydroxypropoxy)-N-methylbenzenesulfonamide]", "IC50": 51.8}, {"smiles": "CNS(=O)(=O)c1cccc(OC[C@@H](O)CNC2COC3(CCN(S(=O)(=O)c4ccc(N5CCOCC5)nc4)CC3)C2)c1", "note": "(stereo partly drawn) [Compound 406, 3-((2S)-2-hydroxy-3-(8-(6-morpholinopyridin-3-ylsulfonyl)-1-oxa-8-azaspiro[4.5]decan-3-ylamino)propoxy)-N-methylbenzenesulfonamide]", "IC50": 31.1}, {"smiles": "CNS(=O)(=O)c1cccc(OC[C@@H](O)CNC2COC3(CCN(S(=O)(=O)c4ccc(-c5cccnc5)cc4)CC3)C2)c1", "note": "(stereo partly drawn) [Compound 407, 3-((2S)-2-hydroxy-3-(8-(4-(pyridin-3-yl)phenylsulfonyl)-1-oxa-8-azaspiro[4.5]decan-3-ylamino)propoxy)-N-methylbenzenesulfonamide]", "IC50": 23}, {"smiles": "CNS(=O)(=O)c1cccc(OC[C@@H](O)CNC2COC3(CCN(S(=O)(=O)c4ccc(-c5ccncc5)cc4)CC3)C2)c1", "note": "(stereo partly drawn) [Compound 408, 3-((2S)-2-hydroxy-3-(8-(4-(pyridin-4-yl)phenylsulfonyl)-1-oxa-8-azaspiro[4.5]decan-3-ylamino)propoxy)-N-methylbenzenesulfonamide]", "IC50": 39.1}, {"smiles": "CNS(=O)(=O)c1cccc(OC[C@@H](O)CNC2COC3(CCN(S(=O)(=O)c4cccc(-c5nn[nH]n5)c4)CC3)C2)c1", "note": "(stereo partly drawn) [Compound 409, 3-((2S)-3-(8-(3-(2H-tetrazol-5-yl)phenylsulfonyl)-1-oxa-8-azaspiro[4.5]decan-3-ylamino)-2-hydroxypropoxy)-N-methylbenzenesulfonamide]", "IC50": 180}, {"smiles": "CNS(=O)(=O)c1cccc(OC[C@@H](O)CNC2COC3(CCN(S(=O)(=O)c4ccc(-c5nn[nH]n5)cc4)CC3)C2)c1", "note": "(stereo partly drawn) [Compound 410, 3-((2S)-3-(8-(4-(2H-tetrazol-5-yl)phenylsulfonyl)-1-oxa-8-azaspiro[4.5]decan-3-ylamino)-2-hydroxypropoxy)-N-methylbenzenesulfonamide]", "IC50": 389}, {"smiles": "CNS(=O)(=O)c1cccc(OC[C@@H](O)CNC2COC3(CCN(S(=O)(=O)c4cc(-c5ccc(CN)cc5)ccc4OC(F)(F)F)CC3)C2)c1", "note": "(stereo partly drawn) [Compound 411, 3-((2S)-3-(8-(4′-(aminomethyl)-4-(trifluoromethoxy)biphenyl-3-ylsulfonyl)-1-oxa-8-azaspiro[4.5]decan-3-ylamino)-2-hydroxypropoxy)-N-methylbenzenesulfonamide]", "IC50": 9.84}, {"smiles": "CNS(=O)(=O)c1cccc(OC[C@@H](O)CNC2COC3(CCN(S(=O)(=O)c4cc(Br)ccc4OCCN4CCCC4)CC3)C2)c1", "note": "(stereo partly drawn) [Compound 412, 3-((2S)-3-(8-(5-bromo-2-(2-(pyrrolidin-1-yl)ethoxy)phenylsulfonyl)-1-oxa-8-azaspiro[4.5]decan-3-ylamino)-2-hydroxypropoxy)-N-methylbenzenesulfonamide]", "IC50": 49.6}, {"smiles": "CNS(=O)(=O)c1cccc(OC[C@@H](O)CN[C@@H]2COC3(CCN(S(=O)(=O)c4cnc5c(c4)N(C)CCO5)CC3)C2)c1", "note": "[Compound 413, 3-((S)-2-hydroxy-3-((S)-8-(1-methyl-2,3-dihydro-1H-pyrido[2,3-b][1,4]oxazin-7-ylsulfonyl)-1-oxa-8-azaspiro[4.5]decan-3-ylamino)propoxy)-N-methylbenzenesulfonamide]", "IC50": 14}, {"smiles": "CNS(=O)(=O)c1cccc(OC[C@@H](O)CN[C@H]2COC3(CCN(S(=O)(=O)c4cnc5c(c4)N(C)CCO5)CC3)C2)c1", "note": "[Compound 414, 3-((S)-2-hydroxy-3-((R)-8-(1-methyl-2,3-dihydro-1H-pyrido[2,3-b][1,4]oxazin-7-ylsulfonyl)-1-oxa-8-azaspiro[4.5]decan-3-ylamino)propoxy)-N-methylbenzenesulfonamide]", "IC50": 16.8}, {"smiles": "CNS(=O)(=O)c1cccc(OC[C@@H](O)CN[C@@H]2COC3(CCN(S(=O)(=O)c4cc(-c5ccc(CN)cc5)ccc4OC(F)(F)F)CC3)C2)c1", "note": "[Compound 415, 3-((S)-3-((S)-8-(4′-(aminomethyl)-4-(trifluoromethoxy)biphenyl-3-ylsulfonyl)-1-oxa-8-azaspiro[4.5]decan-3-ylamino)-2-hydroxypropoxy)-N-methylbenzenesulfonamide]", "IC50": 19.5}, {"smiles": "CNS(=O)(=O)c1cccc(OC[C@@H](O)CN[C@H]2COC3(CCN(S(=O)(=O)c4cc(-c5ccc(CN)cc5)ccc4OC(F)(F)F)CC3)C2)c1", "note": "[Compound 416, 3-((S)-3-((R)-8-(4′-(aminomethyl)-4-(trifluoromethoxy)biphenyl-3-ylsulfonyl)-1-oxa-8-azaspiro[4.5]decan-3-ylamino)-2-hydroxypropoxy)-N-methylbenzenesulfonamide]", "IC50": 262}, {"smiles": "CN1CCOc2ncc(S(=O)(=O)N3CCC4(CC3)C[C@@H](NC[C@H](O)COc3cccc(S(=O)(=O)NCCO)c3)CO4)cc21", "note": "[Compound 417, 3-((S)-2-hydroxy-3-((R)-8-(1-methyl-2,3-dihydro-1H-pyrido[2,3-b][1,4]oxazin-7-ylsulfonyl)-1-oxa-8-azaspiro[4.5]decan-3-ylamino)propoxy)-N-(2-hydroxyethyl)benzenesulfonamide]", "IC50": 112}, {"smiles": "C[C@H](CO)NS(=O)(=O)c1cccc(OC[C@@H](O)CN[C@H]2COC3(CCN(S(=O)(=O)c4cnc5c(c4)N(C)CCO5)CC3)C2)c1", "note": "[Compound 418, 3-((S)-2-hydroxy-3-((R)-8-(1-methyl-2,3-dihydro-1H-pyrido[2,3-b][1,4]oxazin-7-ylsulfonyl)-1-oxa-8-azaspiro[4.5]decan-3-ylamino)propoxy)-N—((R)-1-hydroxypropan-2-yl)benzenesulfonamide]", "IC50": 172}, {"smiles": "CCOc1ccc(-c2ccc(CN)cc2)cc1S(=O)(=O)N1CCC2(CC1)C[C@H](NC[C@H](O)COc1cccc(S(=O)(=O)NC)c1)CO2", "note": "[Compound 419, 3-((S)-3-((S)-8-(4′-(aminomethyl)-4-ethoxybiphenyl-3-ylsulfonyl)-1-oxa-8-azaspiro[4.5]decan-3-ylamino)-2-hydroxypropoxy)-N-methylbenzenesulfonamide]", "IC50": 9.69}, {"smiles": "CCOc1ccc(-c2ccc(CN)cc2)cc1S(=O)(=O)N1CCC2(CC1)C[C@@H](NC[C@H](O)COc1cccc(S(=O)(=O)NC)c1)CO2", "note": "[Compound 420, 3-((S)-3-((R)-8-(4′-(aminomethyl)-4-ethoxybiphenyl-3-ylsulfonyl)-1-oxa-8-azaspiro[4.5]decan-3-ylamino)-2-hydroxypropoxy)-N-methylbenzenesulfonamide]", "IC50": 10.2}, {"smiles": "CNS(=O)(=O)c1cccc(OC[C@@H](O)CNC2COC3(CCN(S(=O)(=O)c4ccc(N5CCCCC5)nc4)CC3)C2)c1", "note": "(stereo partly drawn) [Compound 421, 3-((2S)-2-hydroxy-3-(8-(6-(piperidin-1-yl)pyridin-3-ylsulfonyl)-1-oxa-8-azaspiro[4.5]decan-3-ylamino)propoxy)-N-methylbenzenesulfonamide]", "IC50": 16.9}, {"smiles": "CNS(=O)(=O)c1cccc(OC[C@@H](O)CNC2COC3(CCN(S(=O)(=O)c4ccc(N(C)C)nc4)CC3)C2)c1", "note": "(stereo partly drawn) [Compound 422, 3-((2S)-3-(8-(6-(dimethylamino)pyridin-3-ylsulfonyl)-1-oxa-8-azaspiro[4.5]decan-3-ylamino)-2-hydroxypropoxy)-N-methylbenzenesulfonamide]", "IC50": 16.7}, {"smiles": "CCN1CCOc2ncc(S(=O)(=O)N3CCC4(CC3)CC(NC[C@H](O)COc3cccc(S(=O)(=O)NC)c3)CO4)cc21", "note": "(stereo partly drawn) [Compound 423, 3-((2S)-3-(8-(1-ethyl-2,3-dihydro-1H-pyrido[2,3-b][1,4]oxazin-7-ylsulfonyl)-1-oxa-8-azaspiro[4.5]decan-3-ylamino)-2-hydroxypropoxy)-N-methylbenzenesulfonamide]", "IC50": 12.6}, {"smiles": "C[C@H](CO)NS(=O)(=O)c1cccc(OC[C@@H](O)CN[C@@H]2COC3(CCN(S(=O)(=O)c4cccc(-c5ccc(CN)cc5)c4)CC3)C2)c1", "note": "[Compound 424, 3-((S)-3-((S)-8-(4′-(aminomethyl)biphenyl-3-ylsulfonyl)-1-oxa-8-azaspiro[4.5]decan-3-ylamino)-2-hydroxypropoxy)-N—((R)-1-hydroxypropan-2-yl)benzenesulfonamide]", "IC50": 51.3}, {"smiles": "CNS(=O)(=O)c1cccc(OC[C@@H](O)CNC2COC3(CCN(S(=O)(=O)c4cnc(O)nc4)CC3)C2)c1", "note": "(stereo partly drawn) [Compound 425, 3-((2S)-2-hydroxy-3-(8-(2-hydroxypyrimidin-5-ylsulfonyl)-1-oxa-8-azaspiro[4.5]decan-3-ylamino)propoxy)-N-methylbenzenesulfonamide]", "IC50": 216}, {"smiles": "CNS(=O)(=O)c1cccc(OC[C@@H](O)CNC2COC3(CCN(S(=O)(=O)c4ccc(NCCOC)nc4)CC3)C2)c1", "note": "(stereo partly drawn) [Compound 426, 3-((2S)-2-hydroxy-3-(8-(6-(2-methoxyethylamino)pyridin-3-ylsulfonyl)-1-oxa-8-azaspiro[4.5]decan-3-ylamino)propoxy)-N-methylbenzenesulfonamide]", "IC50": 98.6}, {"smiles": "CN1CCOc2ncc(S(=O)(=O)N3CCC4(CC3)C[C@@H](NC[C@H](O)COc3cccc(S(=O)(=O)N[C@H]5CCC[C@@H]5O)c3)CO4)cc21", "note": "[Compound 427, 3-((S)-2-hydroxy-3-((R)-8-(1-methyl-2,3-dihydro-1H-pyrido[2,3-b][1,4]oxazin-7-ylsulfonyl)-1-oxa-8-azaspiro[4.5]decan-3-ylamino)propoxy)-N-((1S,2S)-2-hydroxycyclopentyl)benzenesulfonamide]", "IC50": 184}]}]}
